{"source": "patent US8246984B2", "about": "“Formulation of insoluble small molecule therapeutics in lipid-based carriers” (Rigel Pharmaceuticals, Inc., priority 2005, dated 2012)", "origin": "cited, not measured here", "conditions": "transition temperature, gel to liquid crystalline phase", "data": [{"smiles": "CCCCCCCCCCCCCCCC(=O)OC[C@H](COP(=O)([O-])OCC[N+](C)(C)C)OC(=O)CCCCCCCCCCCCCCC", "note": "[Dipalmitoylphosphatidylcholine]", "values": [{"measurement": "Tm", "result": 41, "unit": "°C"}]}, {"smiles": "CCCCCCCCCCCCCC(=O)OC[C@H](COP(=O)([O-])OCC[N+](C)(C)C)OC(=O)CCCCCCCCCCCCC", "note": "[Dimyristoylphosphatidylcholine]", "values": [{"measurement": "Tm", "result": 23, "unit": "°C"}]}, {"smiles": "CCCCCCCC/C=C\\CCCCCCCC(=O)OC[C@H](COP(=O)([O-])OCC[N+](C)(C)C)OC(=O)CCCCCCC/C=C\\CCCCCCCC", "note": "[Dioleoylphosphatidylcholine, 1,2-dioleoyl-sn-glycero-3-phosphocholine]", "values": [{"measurement": "Tm", "result": "−22", "unit": "°C"}]}, {"smiles": "CCCCCCCCCCCCCCCCCC(=O)OC[C@H](COP(=O)([O-])OCC[N+](C)(C)C)OC(=O)CCCCCCCCCCCCCCCCC", "note": "[Distearoylphosphatidylcholine]", "values": [{"measurement": "Tm", "result": 55, "unit": "°C"}]}]}
